Results taken from US20230219904A1 (SYNGENTA CROP PROTECTION AG, priority 2020, published 2023).

Key:
Format in all cases: in vivo
[1] = system: ECHCG (Echinochloa crus-galli); test: Comparative test, PRE application (Table B2); conditions: evaluated after 14 days
Experimental: (§1) TABLE B2—COMPARATIVE TEST
(§2) Seeds of test species were sown in standard soil in pots. After cultivation for one day under controlled conditions in a glasshouse (at 24/16° C., day/night; 14 hours light; 65% humidity), the plants were sprayed with an aqueous spray solution derived from the formulation of the technical active ingredient in 0.6 ml acetone and 45 ml formulation solution containing 10.6% Emulsogen EL (Registry number 61791-12-6), 42.2% N-methyl pyrrolidone, 42.2% dipropylene glycol monomethyl ether (CAS RN 34590-94-8) and 0.2% X-77 (CAS RN 11097-66-8). The test plants were then grown in a glasshouse under controlled conditions in a glasshouse (at 24/16° C., day/night; 14 hours light; 65% humidity) and watered twice daily. After 14 days, the test was evaluated (100=total damage to plant; 0=no damage to plant).
(§3) Test species: ABUTH (Abutilon theophrasti); BRO′I′L (Bromus tectorum); ECHCG (Echinochloa crus-galli); SINAR (Sinapis arvensis).

[2] = system: ABUTH (Abutilon theophrasti); test: Comparative test, PRE application (Table B2); conditions: evaluated after 14 days
Experimental: as §1, §2, §3

BROTE (Bromus tectorum) = test: Comparative test, PRE application (Table B2); conditions: evaluated after 14 days
Experimental: as §1, §2, §3

SINAR (Sinapis arvensis) = test: Comparative test, PRE application (Table B2); conditions: evaluated after 14 days
Experimental: as §1, §2, §3

[3] = system: Amaranthus retoflexus (AMARE); test: Pre-emergence herbicidal glasshouse test (Table B1); conditions: evaluated after 13 days
Summary of the method: (§4)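 In this pot assay, seedlings or sown soil receive a spray of formulated active ingredient (acetone/water 50:50, 0.5% Tween 20) at 500 g/h unless indicated. Conditions: 24/16° C day/night, 14 hours light, 65% humidity, watering twice daily. Injury is scored after 13 days, 1 (0-19%) to 5 (80-100%).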

[4] = system: Ipomoea hederacea (IPOHE); test: as above; conditions: evaluated after 13 days
Summary of the method: as §4

Setaria faberi (SETFA) [5] = test: as above; conditions: evaluated after 13 days
Summary of the method: as §4

[6] = system: Abutilon theophrasti (ABUTH); test: as above; conditions: evaluated after 13 days
Summary of the method: as §4

[7] = system: Echinochloa crus-galh (ECHCG); test: as above; conditions: evaluated after 13 days
Summary of the method: as §4

[8] = system: Amaranthus retoflexus (AMARE); test: Post-emergence herbicidal glasshouse test (Table B1); conditions: evaluated after 13 days
Summary of the method: as §4

[9] = system: Ipomoea hederacea (IPOHE); test: as above; conditions: evaluated after 13 days
Summary of the method: as §4

Setaria faberi (SETFA) [10] = test: as above; conditions: evaluated after 13 days
Summary of the method: as §4

[11] = system: Abutilon theophrasti (ABUTH); test: as above; conditions: applied at 500 g/h, evaluated after 13 days
Summary of the method: as §4

[12] = system: Echinochloa crus-galh (ECHCG); test: as above; conditions: evaluated after 13 days
Summary of the method: as §4

| Compound | damage to plant ECHCG (100=total damage to plant; 0=no damage to plant) ([1]; 30 g/ha) | damage to plant ECHCG (100=total damage to plant; 0=no damage to plant) ([1]; 130 g/ha) | damage to plant ECHCG (100=total damage to plant; 0=no damage to plant) ([1]; 250 g/ha) | damage to plant ABUTH (100=total damage to plant; 0=no damage to plant) ([2]; 30 g/ha) | damage to plant ABUTH (100=total damage to plant; 0=no damage to plant) ([2]; 130 g/ha) | damage to plant ABUTH (100=total damage to plant; 0=no damage to plant) ([2]; 250 g/ha) | damage to plant BROTE (100=total damage to plant; 0=no damage to plant) (BROTE (Bromus tectorum); 30 g/ha) | damage to plant BROTE (100=total damage to plant; 0=no damage to plant) (BROTE (Bromus tectorum); 130 g/ha) | damage to plant BROTE (100=total damage to plant; 0=no damage to plant) (BROTE (Bromus tectorum); 250 g/ha) | damage to plant SINAR (100=total damage to plant; 0=no damage to plant) (SINAR (Sinapis arvensis); 30 g/ha) | PRE Application AMARE, percentage damage on five-point scale ([3]; applied at 500 g/h) | PRE Application IPOHE, percentage damage on five-point scale ([4]; applied) | PRE Application SETFA, percentage damage on five-point scale (Setaria faberi (SETFA) [5]; applied at 500 g/h) | PRE Application ABUTH, percentage damage on five-point scale ([6]; applied at 500 g/h) | PRE Application ECHCG, percentage damage on five-point scale ([7]; applied at 500 g/h) | POST Application AMARE, percentage damage on five-point scale ([8]; applied at 500 g/h) | POST Application IPOHE, percentage damage on five-point scale ([9]; applied at 500 g/h) | POST Application SETFA, percentage damage on five-point scale (Setaria faberi (SETFA) [10]; applied at 500 g/h) | POST Application ABUTH, percentage damage on five-point scale [11] | POST Application ECHCG, percentage damage on five-point scale ([12]; applied at 500 g/h) | further results |
| --- | --- | --- | --- | --- | --- | --- | --- | --- | --- | --- | --- | --- | --- | --- | --- | --- | --- | --- | --- | --- | --- |
| CC(=O)Nc1c(OC(F)(F)F)ccc(C(=O)Nc2nnnn2C)c1Cl [Compound 1.002] | 20 | 30 | 80 | 0 | 10 | 80 | 0 | 10 | 70 | 10 | 5 (5=80-100%) | 1 (1=0-19%) | 2 (2=20-39%) | 5 (5=80-100%) | 5 (5=80-100%) | 5 (5=80-100%) | 5 (5=80-100%) | 5 (5=80-100%) | 5 (5=80-100%) | 5 (5=80-100%) | damage to plant SINAR (100=total damage to plant; 0=no damage to plant) (SINAR (Sinapis arvensis); 130 g/ha): 30; damage to plant SINAR (100=total damage to plant; 0=no damage to plant) (SINAR (Sinapis arvensis); 250 g/ha): 80 |
| CCC(=O)Nc1c(OC(F)(F)F)ccc(C(=O)Nc2nnnn2C)c1Cl [Compound 1.007, 2-chloro-N-(1-methyltetrazol-5-yl)-3-(propanoylamino)-4-(trifluoromethoxy)benzamide] | 20 | 70 | 90 | 0 | 60 | 90 | 0 | 0 | 20 | 10 | – | – | – | – | – | – | – | – | – | – | damage to plant SINAR (100=total damage to plant; 0=no damage to plant) (SINAR (Sinapis arvensis); 130 g/ha): 60; damage to plant SINAR (100=total damage to plant; 0=no damage to plant) (SINAR (Sinapis arvensis); 250 g/ha): 100; PRE Application AMARE, percentage damage on five-point scale ([3]; applied at 125 g/ha): 5 (5=80-100%); PRE Application IPOHE, percentage damage on five-point scale ([4]; applied at 125 g/ha): 5 (5=80-100%); PRE Application SETFA, percentage damage on five-point scale (Setaria faberi (SETFA) [5]; applied at 125 g/ha): 5 (5=80-100%); PRE Application ABUTH, percentage damage on five-point scale ([6]; applied at 125 g/ha): 5 (5=80-100%); PRE Application ECHCG, percentage damage on five-point scale ([7]; applied at 125 g/ha): 5 (5=80-100%); POST Application AMARE, percentage damage on five-point scale ([8]; applied at 125 g/ha): 5 (5=80-100%); POST Application IPOHE, percentage damage on five-point scale ([9]; applied at 125 g/ha): 4 (4=60-79%); POST Application SETFA, percentage damage on five-point scale (Setaria faberi (SETFA) [10]; applied at 125 g/ha): 5 (5=80-100%); POST Application ECHCG, percentage damage on five-point scale ([12]; applied at 125 g/ha): 5 (5=80-100%) |
| Cc1nnc(NC(=O)c2ccc(OC(F)(F)F)c(N(C)C)c2Cl)o1 [Compound 2.001, 2-chloro-3-(dimethylamino)-N-(5-methyl-1,3,4-oxadiazol-2-yl)-4-(trifluoromethoxy)benzamide] | – | – | – | – | – | – | – | – | – | – | 5 (5=80-100%) | 3 (3=40-59%) | 5 (5=80-100%) | 4 (4=60-79%) | 5 (5=80-100%) | 5 (5=80-100%) | 5 (5=80-100%) | 5 (5=80-100%) | 4 (4=60-79%) | 5 (5=80-100%) | – |
| CC(=O)Nc1c(OC(F)(F)F)ccc(C(=O)Nc2nnc(C)o2)c1Cl [Compound 2.002] | – | – | – | – | – | – | – | – | – | – | 1 (1=0-19%) | 1 (1=0-19%) | 1 (1=0-19%) | 3 (3=40-59%) | 1 (1=0-19%) | 5 (5=80-100%) | 5 (5=80-100%) | 5 (5=80-100%) | 5 (5=80-100%) | 5 (5=80-100%) | – |
| CC(=O)N(C)c1c(OC(F)(F)F)ccc(C(=O)Nc2nnc(C)o2)c1Cl [Compound 2.003] | – | – | – | – | – | – | – | – | – | – | 5 (5=80-100%) | 4 (4=60-79%) | 5 (5=80-100%) | 5 (5=80-100%) | 5 (5=80-100%) | 5 (5=80-100%) | 5 (5=80-100%) | 5 (5=80-100%) | 5 (5=80-100%) | 5 (5=80-100%) | – |
| Cc1nnc(NC(=O)c2ccc(OC(F)(F)F)c(N3CCCCC3=O)c2Cl)o1 [Compound 2.004] | – | – | – | – | – | – | – | – | – | – | 5 (5=80-100%) | 1 (1=0-19%) | 5 (5=80-100%) | 4 (4=60-79%) | 5 (5=80-100%) | 5 (5=80-100%) | 5 (5=80-100%) | 5 (5=80-100%) | 5 (5=80-100%) | 5 (5=80-100%) | – |
